The values that follow come from patent US20110015162A1, “15,16-Methylene-17-hydroxy-19-nor-21-carboxylic acid-steroid Y-lactone derivative, use thereof and medicinal products containing the derivative” (Bayer Schering Pharma Aktiengesellschaft, priority 2007, published 2011).

Structures are written as SMILES. pEC50: −log10 of the molar value.

This assay deals with T1, fusion protein from the PR-ligand-binding domain and a Gal4-transactivation domain (Homo sapiens, UniProt P06401).
T1 construct: expressed in transfected cells; host or cells: CHO K1 cells, stably transfected
Put plainly: Progestational action by transactivation test (CHO K1 reporter cells). It counts as cell-based. As for the experimental part:
4. Determination of Progestational Action by Means of Transactivation Tests:
The culture medium used for culture of the cells used for the assay was DMEM (Dulbecco's Modified Eagle Medium: […] glucose; PAA, #E15-009) with 10% FCS (Biochrom, S0115, batch #615B), 4 mM L-glutamine, 1% penicillin/streptomycin, 1 mg/ml G418 and 0.5 μg/ml puromycin.
Reporter cell lines (CHO K1 cells stably transfected with a fusion protein from the PR-ligand-binding domain and a Gal4-transactivation domain and a reporter construct, which contained luciferase under the control of a Gal4-responsive promoter) were seeded at a density of 4×10^4 cells per well in white, opaque tissue culture plates each with 96 wells (PerkinElmer, #P12-106-017) and kept in culture medium with 3% DCC-FCS (serum treated with activated charcoal to remove interfering components contained in the serum). The test compounds were added eight hours later, and the cells were incubated with the compounds for 16 hours. The tests were carried out in triplicate. At the end of incubation the medium containing the effector was removed and replaced with lysis buffer. After luciferase assay substrate (Promega, #E1501) had been added, the 96-well plates were then put in a microplate luminometer (Pherastar, BMG Labtech), and the luminescence was measured. The IC50 values were evaluated using software for calculating dose-effect relations.

T1 sequence (P06401 679-913 limits assumed): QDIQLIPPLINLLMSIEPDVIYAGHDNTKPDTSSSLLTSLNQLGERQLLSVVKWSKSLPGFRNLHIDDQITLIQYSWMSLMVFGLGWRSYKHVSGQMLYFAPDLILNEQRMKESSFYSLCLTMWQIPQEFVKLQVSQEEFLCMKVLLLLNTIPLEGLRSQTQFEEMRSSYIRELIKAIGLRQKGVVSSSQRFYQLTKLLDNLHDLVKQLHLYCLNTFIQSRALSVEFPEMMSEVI
T1 sequence (P04386 1-147 partner limits assumed): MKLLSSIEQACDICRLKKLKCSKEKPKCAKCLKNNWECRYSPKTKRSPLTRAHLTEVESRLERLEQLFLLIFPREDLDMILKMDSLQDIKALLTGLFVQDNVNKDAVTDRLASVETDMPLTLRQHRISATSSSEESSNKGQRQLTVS

On to `C[C@]12CC[C@H]3[C@@H](CCC4=C(Cl)C(=O)CC[C@@H]43)[C@@H]1[C@@H]1C[C@@H]1[C@@]21C=CC(=O)O1` [Example 27, 4-Chloro-17β-hydroxy-15β,16β-methylene-19-nor-17α-pregna-4,20(Z)-dien-3-one-21-carboxylic acid γ-lactone], for which the pEC50 was 6.48. In addition, under “CHO-K1, 16 h, read-out: Progesterone receptor Agonism efficacy”, the Emax was 49.6%.
